# Measured values: US8618082B2, “Lupeol anti-tumor agent and uses thereof” (Wisconsin Alumni Research Foundation, priority 2004, dated 2013)
# What was measured:
# [1] = tested on: catalytic (p110) and regulatory (p85) subunit of PI3K; experiment: TPA-induced epidermal PI3K expression (western blot); type: in vivo, mouse
# Protocol: FIG. 5. Inhibitory effect of Lupeol on TPA-induced activation of PI3K and phosphorylation of Akt in CD-1 mice: At different times after treatment, the animals were sacrificed, epidermal protein lysate was prepared, and PI3K and phosphorylated (Thr^308) Akt and total Akt protein expression were determined. The immunoblots shown here are representative of three independent experiments with similar results. The values above each lane indicate relative density of the band normalized to β-actin.
# The animals were shaved on the dorsal side of the skin, divided into four groups and treated topically on the shaved area with either 0.4 ml vehicle (acetone), or TPA (3.2 nmol/0.4 ml acetone/animal, v/v), or Lupeol (1 or 2 mg/0.2 ml acetone/animal, w/v) followed 30 min later with TPA (3.2 nmol/0.2 ml acetone/animal). Animals were sacrificed at different times point i.e. 6, 12, 24 and 48 h post TPA treatment. The epidermis was separated from the whole skin and homogenized in 0.1 M Tris-HCl buffer (pH 7.2) using a Polytron tissue homogenizer (Brinkmann Instruments, Westbury, N.Y., USA) at 100,000×g supernatant, and microsomal fractions were prepared as described earlier (Katiyar and Mukhtar, 1997). The sample of 6 h treatment group was used to assess the ODC activity as this time point has previously been shown for optimal induction of the enzyme (Katiyar er al., 1996).
# Epidermis from the whole skin was separated as described earlier (Katiyar et al., 1999) and was homogenized in ice-cold lysis buffer [50 mM Tris-HCl, 150 mM NaCl, 1 mM EGTA, 1 mM EDTA, 20 mM NaF, 100 mM Na3VO4, 0.5% NP-40, 1% Triton X-100, 1 mM PMSF (pH 7.4)] with freshly added protease inhibitor cocktail, Protease Inhibitor Cocktail Set III (Calbiochem, La Jolla, Calif., USA). The homogenate was then centrifuged at 14,000×g for 25 minutes at 4° C. and the supernatant (total cell lysate) was collected, aliquoted and stored at −80° C. For the preparation of nuclear lysate, 0.2 g of the epidermis was homogenized in 1 ml of ice-cold phosphate-buffered saline (pH 7.6) and centrifuged at 12,000×g for 5 min at 4° C. […] The protein content in the lysates was measured by DC BioRad assay (BioRad Laboratories, Hercules, Calif.) as per the manufacturer's protocol.
# For western blot analysis, 40 μg of the protein was resolved over 8-12% polyacrylamide gels and transferred to a nitrocellulose membrane. […] This was followed by incubation with anti-mouse or anti-rabbit secondary antibody horse-radish peroxidase (Amersham Life Sciences, Inc., USA) for 1 h and then washed several times and detected by chemiluminescence ECL kit, (Amersham Life Sciences, Inc., USA) and autoradiography using XAR-5 film obtained from Eastman Kodak Co. (Rochester, N.Y., USA). […]
# CD-1 mouse skin = type: in vivo
# Protocol: FIG. 8. Two stage carcinogenesis tumor data in CD-1 mice: Inhibitory effect of Lupeol on DMBA-initiated and TPA-promoted tumor formation in CD-1 mice: In each group, 20 animals were used. Tumorigenesis was initiated in the animals by a single topical application of 200 nmol DMBA in 0.2 ml vehicle on the dorsal shaved skin, and 1 week later, the tumor growth was promoted with twice-weekly applications of 3.2 nmol TPA in 0.2 ml vehicle. To assess its anti-skin tumor-promoting effect, Lupeol at a dose of 2 mg/animal was applied topically 30 min prior to each TPA application in different groups. Treatment with TPA alone or Lupeol plus TPA was repeated twice weekly up to the termination of the experiments at 28 weeks. Animals in all the groups were watched for any apparent signs of toxicity, such as weight loss or mortality during the entire period of study. Skin tumor formation was recorded weekly, and tumors larger than 1 mm in diameter were included in the cumulative number only if they persisted for 2 weeks or more. The tumor data is represented as the percentage of mice with tumors (a), the number of tumors per mouse (b) and the number of tumors per group (c). The data was analyzed by Wilcoxon rank sum test and χ^2 analysis.
# Female CD-1 mice were used in DMBA- and TPA-induced, two-stage skin tumorigenesis protocol as described earlier (Katiyar et al., 1996). The dorsal side of the skin was shaved using electric clippers, and the mice with hair cycles in the resting phase were used for tumor studies. In each group, 20 animals were used. Tumorigenesis was initiated in the animals by a single topical application of 200 nmol DMBA in 0.2 ml vehicle on the dorsal shaved skin, and 1 week later, the tumor growth was promoted with twice-weekly applications of 3.2 nmol TPA in 0.2 ml vehicle. […] Treatment with TPA alone or Lupeol plus TPA was repeated twice weekly up to the termination of the experiments at 28 weeks. Animals in all the groups were watched for any apparent signs of toxicity, such as weight loss or mortality during the entire period of study. Skin tumor formation was recorded weekly, and tumors larger than 1 mm in diameter were included in the cumulative number only if they persisted for 2 weeks or more.
# A two-tailed Student's t test was used to assess the statistical significance between the TPA treated and Lupeol+TPA treated groups. A p value<0.05 was considered statistically significant. In tumorigenesis experiments, the statistical significance of difference between TPA and Lupeol+TPA groups was evaluated by the Wilcoxon rank sum test and χ^2 analysis.
# [2] = Lupeol 2 mg/animal, 28 weeks, vs non-Lupeol treated group
compound,measurement,setting,value
"C=C(C)[C@@H]1CC[C@]2(C)CC[C@]3(C)[C@H](CC[C@@H]4[C@@]5(C)CC[C@H](O)C(C)(C)[C@@H]5CC[C@]43C)[C@@H]12 [Lupeol, Lup-20(29)-en-3β-ol]",expression of p110 and p85,[1]; 2 mg Lupeol prior to TPA,recovery of the expression of both p110 and p85 almost to their basal levels
same,TPA-induced increased expression of catalytic and regulatory subunits of PI3K,[1]; topical Lupeol 30 min prior to TPA,significant inhibition
same,percentage of mice with skin tumors,"CD-1 mouse skin; Lupeol 2 mg/animal topical 30 min prior to each TPA, 28 weeks, non-Lupeol group 100%",53%
same,total number of tumors per group,"CD-1 mouse skin; Lupeol 2 mg/animal, 28 weeks, 20 animals, non-Lupeol group 125",33 tumors
same,inhibition of number of tumors per mouse,CD-1 mouse skin; [2],74%
same,inhibition of total number of tumors,CD-1 mouse skin; [2],74%
same,number of tumors per mouse,"CD-1 mouse skin; Lupeol 2 mg/animal, 28 weeks, non-Lupeol group 6.25",1.65 tumors per mouse
same,latency period of tumor formation,"CD-1 mouse skin; Lupeol 2 mg/animal, p<0.05, χ2 test",significantly increased
same,body weight gain,"CD-1 mouse skin; Lupeol treatment for 28 weeks, data not shown",did not significantly affect
same,signs of toxicity,"CD-1 mouse skin; mouse, in vivo",none of the treated mice exhibited any signs of toxicity
